From patent US20110059475A1, “STABILISATION OF BLOOD CELL CONJUGATES” (THE UNIVERSITY OF NOTTINGHAM, priority 2008, published 2011)
Entries after “also recorded” stand apart in the source; their conditions may differ.

What was measured:
platelets [1] = test: ADP-induced platelet aggregation in blood of volunteers before and after treatment with clopidogrel or clopidogrel plus aspirin; conditions: ADP 10 μM stimulant tube, citrate blood, percentage of EDTA sample
platelets [2] = test: Whole blood platelet aggregation: flow cytometric single platelet count in fixed and stabilised citrate-anticoagulated blood; assay type: cell-based
Excerpt: Referring to FIG. 1, there are illustrated dot plots by which the number of single platelets may be quantified. Once the number of single platelets has been determined, it is then possible to calculate the percentage degree of platelet aggregation. Quantification of single platelets in whole blood by flow cytometry required 50,000 red cell events which were collected in region P1 on a forward scatter/side scatter plot, as shown in FIG. 1a. CD42a fluorescence was plotted against forward scatter, and region P2 was selected by drawing a curved line to include all platelet-related events and excluding erythrocyte/platelet co-incidences marked “e/p”, as shown in FIG. 1b. EDTA-anti-coagulated blood, or citrate anti-coagulated blood containing EDTA thus containing unstimulated platelets, was used to set three rectangular gates to quantitate microparticles (P3), single platelets (P4), and microaggregates (P5). These gates were then applied to the dot plots obtained for stimulated samples of blood, recording single platelets in P4. An example of results from an ADP-stimulated, fixed sample in which the single platelet events (P4) reduced from 1716 to 182 (indicating the formation of platelet aggregates) is shown in FIGS. 1d, 1e and 1f.
Fixed and stabilised blood samples were mixed gently by repeated inversion of the sample tubes. 100 μl of the fixed blood was placed in a flow cytometry tube and centrifuged at 380 g for 5 minutes after which 90 μl of the supernatant is removed. The remaining 10 μl of fixed blood was then incubated with 10 μl of a 1 in 10 dilution of CD42a-FITC-labelled antibody for 20 min at 4° C. in the FACS tubes. 1 ml of FACSflow (or any other flow cytometry diluent) was added to the tubes immediately prior to reading on any flow cytometer equipped with a laser operating at an excitation wavelength of 488 nm and with detectors for measurement at suitable wavelengths for the selected fluorochromes (ie FITC). Appropriate software was used to acquire and analyse data on dot plots of forward scatter versus side scatter and forward scatter versus FITC fluorescence acquired with logarithmic amplification. Acquisition was stopped after recording 50,000 erythrocyte events. A sample of fixed unstimulated EDTA-anti-coagulated blood was used to set the vertical lines of three square gates P3, P4 and P5 on a forward scatter versus FITC fluorescence plot. These gates were adjusted to record microparticles in P3, single platelets in P4 and any microaggregates in P5 (see Example 2). The test samples are then analysed using the same gates. Larger aggregates would not be detected by the flow cytometer since they would be too large and cannot pass through the sample tube of the machine.
The single platelet count described above is a record of the number of single platelets present in each blood sample (recorded as single platelet events, ie the number of single platelets passing the laser) in relation to 50,000 erythrocyte events recorded, ie erythrocytes passing the laser. It is possible to calculate a true platelet count by using standard flow cytometry counting beads, such as those sold under the trade name Trucount. Aggregation is usually determined as a percentage, and in whole blood this may be recorded as a percentage fall in single platelets. […] It is therefore possible to calculate percentage aggregation directly from the recordings of single platelet events using the following formula:—
Where “EDTA count” is the number of platelet events (ie single platelets passing the laser) for a sample containing EDTA which has been fixed in the same way as the test samples, and where “Sample count” is the number of platelet events for the fixed test sample. […]

[3] = test system: platelet-monocyte conjugates; test: Platelet-monocyte conjugates by flow cytometry (CD14 with CD42a or CD62P) in fixed and stabilised blood; assay type: cell-based; conditions: after incubation with collagen
Experimental: (§1) For example, fixed and stabilised samples are removed from the fridge and mixed well until the sedimented cells are fully re-suspended. 500 μl of each sample is then dispensed into appropriately labelled flow cytometry tubes and centrifuged for 10 min at 380 g. 450 μl of the supernatant is then removed, taking care not to disturb the red blood cell pellet. 10 μl of saturating concentrations of CD14-APCCy7 (used to distinguish monocytes and neutrophils) and CD42a-FITC or CD62P-PE (used to identify platelets bound to either monocytes or neutrophils) is then added to the tubes and incubated with the cells in the dark. After 25 minutes, 1 ml of Erythrolyse solution (AbD Serotec, Oxford, UK) is added to the cells and left to stand for 10 minutes to lyse any red blood cells. 1 ml of FACSflow is added and the cells centrifuged at 380 g. Supernatants are decanted and cells re-suspended in 2 ml of FACSflow to wash the cells. The cells are then centrifuged at 380 g again, the supernatant removed and the cells finally re-suspended in 300 μl of FACSflow to await reading on the flow cytometer.
(§2) Leukocytes are initially identified by logical gating from dot plots of forward scatter (cell size) and side scatter (cell granularity) profiles acquired with linear amplification. Fluorescence parameters are acquired with logarithmic amplification and 30,000 leukocyte events are collected for each blood sample. […] Lymphocytes may also be identified by CD14 negativity and a low forward scatter/side scatter profile, but platelet-lymphocyte conjugates are formed to a lesser extent and are not routinely quantitated. Platelet-monocyte and platelet-neutrophil conjugates are quantified as the percentage of monocytes or neutrophils expressing platelet CD42a or CD62P fluorescence in an interval gate which may be adjusted using an appropriate IgG control in each case. Median fluorescence values for CD42a or CD62P are also measured for each population of leukocytes tested. […]

[4] = test system: platelet-neutrophil conjugates; test: Platelet-neutrophil conjugates by flow cytometry (CD14 with CD42a or CD62P) in fixed and stabilised blood; assay type: cell-based; conditions: after incubation with collagen
Experimental: as §1, §2
Referring to FIG. 10, there are shown dot plots used for the identification of platelet-leukocyte conjugates in fixed and stabilised blood samples following incubation with (a) saline, or (b) collagen. […] Platelet-monocyte and platelet-neutrophil conjugate formation following stimulation with collagen is seen as a shift to the right in plot (iii) as the degree of platelet-specific CD42a fluorescence (ie marker expression) increases.
Referring to FIG. 12, there is shown the quantification of platelet-neutrophil conjugates (identified from gates P1 and P4 as shown in FIG. 10) which are detected with the platelet-specific markers CD42a or CD62P. […]

`COC(=O)[C@H](c1ccccc1Cl)N1CCc2sccc2C1` [clopidogrel] was tested, and the “platelet aggregation after treatment compared with before treatment” value (platelets [1]) was “less aggregation; also recorded: inhibited”.
For `Nc1ncnc2c1ncn2[C@@H]1O[C@H](COP(=O)(O)OP(=O)(O)O)[C@@H](O)[C@H]1O` [ADP, adenosine diphosphate], the “aggregation (percentage fall in single platelets)” value (platelets [2]; 1 μM ADP, stirred 4 minutes) was 27%, the “aggregation (percentage fall in single platelets)” value (platelets [2]; 3 μM ADP, stirred 4 minutes) was 62% and the “aggregation (percentage fall in single platelets)” value (platelets [2]; 10 μM ADP, stirred 4 minutes) was 89%. For the same molecule, the “single platelet events (P4)” value (platelets [2]; ADP-stimulated fixed sample, per 50,000 red cell events, unstimulated 1716) was 182.
With Platelet Activating Factor [PAF] the “degree of aggregation (percentage fall in single platelets)” value (platelets [2]; 3 μM PAF, same donor, citrate-anticoagulated blood) was 70%.
`CC(=O)Oc1ccccc1C(=O)O` [aspirin] was tested, and the “effect on collagen-induced platelet aggregation” value (platelets [2]; collagen 1, 2, 3, 4 μg/ml for 10 minutes, presence vs absence of aspirin, three donors) was “significantly reducing the amount of aggregation”.
For `CCCCC[C@H](O)/C=C/[C@@H]1[C@@H](C/C=C\CCCC(=O)O)[C@H]2CO[C@@H]1C2` [U46619], the “degree of aggregation (percentage fall in single platelets)” value (platelets [2]; 1 μM U46619, same donor, citrate-anticoagulated blood) was 96%.
In the case of `CCCCC/C=C\C/C=C\C/C=C\C/C=C\CCCC(=O)O` [AA, arachidonic acid], the “degree of aggregation (percentage fall in single platelets)” value (platelets [2]; 200 nM arachidonic acid, same donor, citrate-anticoagulated blood) was 54%.
collagen was tested, and the “single platelet events in P4 (sample count)” value (platelets [2]; collagen 1 μg/ml, 4 minutes, per 50,000 erythrocyte events, EDTA count 1118) was 693, the “degree of aggregation (percentage fall in single platelets compared with EDTA sample)” value (platelets [2]; collagen 1 μg/ml, stirred 4 minutes, citrate-anticoagulated blood) was “about 38%” and the “platelet-monocyte conjugates, percentage of parent monocyte population (CD42a, % gated)” value ([3]; saline 8.2) was 64.1%. For the same molecule, the “platelet-monocyte conjugates, percentage of parent monocyte population (CD62P, % gated)” value ([3]; saline 9.3) was 98.7%, the “CD42a median fluorescence of monocyte population” value ([3]; saline 259) was 832 arbitrary units and the “platelet-neutrophil conjugates, percentage of parent neutrophil population (CD62P, % gated)” value ([4]; saline 7.3) was 72.1%. For the same molecule, the “platelet-neutrophil conjugates, percentage of parent neutrophil population (CD42a, % gated)” value ([4]; saline 7.9) was 21.9%, the “CD62P median fluorescence of neutrophil population” value ([4]; saline 141) was 688 and the “CD42a median fluorescence of neutrophil population” value ([4]; saline 142) was 201.
In the case of “Thrombin Receptor Activating Peptide [TRAP]”, the “degree of aggregation (percentage fall in single platelets)” value (platelets [2]; 10 μM TRAP, same donor, citrate-anticoagulated blood) was 89%.
